Experimental data from ChEMBL document CHEMBL5046280, “Discovery of Small-Molecule Inhibitors of the PD-1/PD-L1 Axis That Promote PD-L1 Internalization and Degradation” (J Med Chem, 2022).
Active and inactive are the calls of the source. No cut-off for these calls is given here.

What was measured:
[1] = target: Programmed cell death protein 1/Programmed cell death 1 ligand 1 (Homo sapiens, UniProt Q9NZQ7); assay: Inhibition of PD-1/PD-L1 (unknown origin) interaction pre-incubated for 15 mins and measured after 90 mins by TR-FRET assay; type: protein-complex assay
CT26 [2] = assay: Antitumor immunity activity against mouse CT26 cells implanted in BALB/c mouse assessed as upregulation of CXCL9 mRNA at 160 mg/kg, po administered once daily for 2 weeks by qRT-PCR analysis; type: functional, organism-based
B16-F10 [3] = assay: Antitumor activity against mouse B16-F10 cells implanted in […] mouse assessed as decrease in nucleus to cytoplasm interaction in tumor cells at 40 to 160 mg/kg,po administered once daily for 2 weeks by H and E staining based assay; type: functional, organism-based; conditions: dose 40-160 mg/kg
B16-F10 [4] = assay: Antitumor activity against po dosed mouse B16-F10 cells implanted in […] mouse assessed as inhibition of tumor volume in presence of PD-L1 antibody administered once daily for 2 weeks; type: functional, organism-based; conditions: dose 40-160 mg/kg
B16-F10 [5] = assay: Antitumor activity against mouse B16-F10 cells implanted in […] mouse assessed as increase in infiltration of CD8+ T cells level in tumor tissue at 40 to 160 mg/kg,po administered once daily for 2 weeks in presence of PD-L1 antibody by flow cytometry; type: functional, organism-based; conditions: dose 40-160 mg/kg
B16-F10 [6] = assay: Antitumor activity against mouse B16-F10 cells implanted in […] mouse assessed as decrease in human PD-Ll expression in tumor at 80 mg/kg, po administered once daily for 2 weeks in presence of PD-L1 antibody by Western blotting analysis; type: functional, organism-based
B16-F10 [7] = assay: Antitumor activity against mouse B16-F10 cells implanted in […] mouse assessed as inhibition of tumor volume at 80 mg/kg, po administered once daily for 2 weeks in presence of PD-L1 antibody; type: functional, organism-based
CT26 [8] = assay: Antitumor immunity activity against mouse CT26 cells implanted in BALB/c mouse assessed as upregulation of IFN-gamma mRNA at 160 mg/kg, po administered once daily for 2 weeks by qRT-PCR analysis; type: functional, organism-based
B16-F10 [9] = assay: Antitumor immunity activity against mouse B16-F10 cells implanted in […] mouse assessed as increase level of IFN-gamma mRNA at 40 to 160 mg/kg, po administered once daily for 2 weeks in presence of PD-L1 antibody by […]; type: functional, organism-based; conditions: dose 40-160 mg/kg
B16-F10 [10] = assay: Antitumor immunity activity against mouse B16-F10 cells implanted in […] mouse assessed as increase level of IFN-gamma level in tumor tissue at 40 to 160 mg/kg, po administered once daily for 2 weeks by flow cytometry; type: functional, organism-based; conditions: dose 40-160 mg/kg
CT26 [11] = assay: Antitumor activity against mouse CT26 cells implanted in BALB/c mouse assessed as reduction in tumor weight at 160 mg/kg, po administered once daily for 2 weeks; type: functional; design: scale not given: the % may be the effect or the level left
CT26 [12] = assay: Antitumor activity against mouse CT26 cells implanted in BALB/c mouse assessed as increase in infiltration of CD8+ T cells level in tumor tissue po administered once daily for 2 weeks by flow cytometry; type: functional, organism-based; conditions: dose 40-160 mg/kg
[13] = target: Programmed cell death 1 ligand 1 (Mus musculus, UniProt Q9EP73); assay: Binding affinity to mouse PD-L1 assessed as dissociation constant by micro-scale thermophoresis analysis
B16-F10 [14] = assay: Antitumor activity against po dosed mouse B16-F10 cells implanted in […] mouse assessed as increase in infiltration of CD8+ T cells level in tumor tissue administered once daily for 2 weeks by flow cytometry; type: functional, organism-based; conditions: dose 40-160 mg/kg
CT26 [15] = assay: Antitumor activity against mouse CT26 cells implanted in BALB/c mouse assessed as reduction in tumor weight at 80 mg/kg, po administered once daily for 2 weeks; type: functional; design: scale not given: the % may be the effect or the level left
CT26 [16] = assay: Antitumor activity against mouse CT26 cells implanted in BALB/c mouse assessed as reduction in tumor weight at 40 mg/kg, po administered once daily for 2 weeks; type: functional; design: scale not given: the % may be the effect or the level left
[17] = Toxicity in BALB/c mouse harbouring mouse CT26 cells assessed as mortality at 40 to 120 mg/kg, po administered once daily for 2 weeks; type: organism-based; conditions: in vivo, 336 h, dose 40-120 mg/kg
CT26 [18] = assay: Antitumor immunity activity against mouse CT26 cells implanted in BALB/c mouse assessed as upregulation of CXCL10 mRNA at 160 mg/kg, po administered once daily for 2 weeks by qRT-PCR analysis; type: functional, organism-based
B16-F10 [19] = assay: Antitumor activity against mouse B16-F10 cells implanted in […] mouse assessed as decrease in nucleus to cytoplasm interaction in tumor cells at 40 to 160 mg/kg, po administered once daily for 2 weeks in presence of PD-L1 antibody by H and E staining based assay; type: functional, organism-based; conditions: dose 40-160 mg/kg
CT26 [20] = assay: Antitumor activity against mouse CT26 cells implanted in BALB/c mouse assessed as downregulation of human PD-Ll expression in tumor tissue at 160 mg/kg per day, po administered once daily for 2 weeks by Western blotting analysis; type: functional, organism-based
CT26 [21] = assay: Antitumor activity against mouse CT26 cells implanted in BALB/c mouse assessed as upregulation of human PD-L1 expression in tumor tissue at 40 mg/kg per day, po administered once daily for 2 weeks by Western blotting analysis; type: functional, organism-based
CT26 [22] = assay: Antitumor activity against po dosed mouse CT26 cells implanted in BALB/c mouse assessed as tumor growth delay treated once daily for 2 weeks; type: functional, organism-based; conditions: dose 40-160 mg/kg
CT26 [23] = assay: Antitumor activity against mouse CT26 cells implanted in BALB/c mouse assessed as downregulation of human PD-L1 expression in tumor tissue at 80 mg/kg per day, po administered once daily for 2 weeks by Western blotting analysis; type: functional, organism-based
CT26 [24] = assay: Antitumor activity against mouse CT26 cells implanted in BALB/c mouse assessed as inhibition of tumor cell growth in tumor tissue at 40 to 160 mg/kg, po administered once daily for 2 weeks by H and E staining based assay; type: functional, organism-based; conditions: dose 40-160 mg/kg
[25] = Toxicity in BALB/c mouse harbouring mouse CT26 cells assessed as change in body weight at 40 to 120 mg/kg, po administered once daily for 2 weeks; type: organism-based; conditions: in vivo, 336 h, dose 40-120 mg/kg
[26] = target: Programmed cell death 1 ligand 1 (Homo sapiens, UniProt Q9NZQ7); assay: Binding affinity to human PD-L1 assessed as dissociation constant by micro-scale thermophoresis analysis
B16-F10 [27] = assay: Antitumor activity against mouse B16-F10 cells implanted in […] mouse assessed as inhibition of tumor volume at 160 mg/kg, po administered once daily for 2 weeks; type: functional, organism-based
MDA-MB-231 = assay: Antitumor immunity against human MDA-MB-231 cells co-cultured with CD3/CD28/CD2 T cell activator stimulated human PMBC assessed as tumor cell viability measuring lactate dehydrogenase release measured for 14 hrs by PBMC killing assay relative to control; type: functional, cell-based

Chain of Programmed cell death protein 1/Programmed cell death 1 ligand 1 (Q15116 whole entry): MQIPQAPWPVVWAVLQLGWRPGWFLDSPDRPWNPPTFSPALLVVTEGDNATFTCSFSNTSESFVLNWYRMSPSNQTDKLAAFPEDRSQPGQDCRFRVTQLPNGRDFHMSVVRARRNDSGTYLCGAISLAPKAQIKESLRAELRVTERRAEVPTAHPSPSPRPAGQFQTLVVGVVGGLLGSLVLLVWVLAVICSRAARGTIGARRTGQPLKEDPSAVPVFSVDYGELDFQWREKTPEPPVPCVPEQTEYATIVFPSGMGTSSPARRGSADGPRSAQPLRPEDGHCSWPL
Chain of Programmed cell death protein 1/Programmed cell death 1 ligand 1 (Q9NZQ7 whole entry): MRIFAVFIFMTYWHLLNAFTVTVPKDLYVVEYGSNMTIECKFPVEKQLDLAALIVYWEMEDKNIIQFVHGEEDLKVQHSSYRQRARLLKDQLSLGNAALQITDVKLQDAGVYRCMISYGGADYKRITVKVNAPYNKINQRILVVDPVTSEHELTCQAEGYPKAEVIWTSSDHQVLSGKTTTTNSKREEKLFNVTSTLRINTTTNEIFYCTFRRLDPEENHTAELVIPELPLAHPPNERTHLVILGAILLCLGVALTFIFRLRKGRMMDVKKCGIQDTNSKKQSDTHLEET
Chain of Programmed cell death 1 ligand 1 (Mus musculus, UniProt Q9EP73) (Q9EP73 whole entry): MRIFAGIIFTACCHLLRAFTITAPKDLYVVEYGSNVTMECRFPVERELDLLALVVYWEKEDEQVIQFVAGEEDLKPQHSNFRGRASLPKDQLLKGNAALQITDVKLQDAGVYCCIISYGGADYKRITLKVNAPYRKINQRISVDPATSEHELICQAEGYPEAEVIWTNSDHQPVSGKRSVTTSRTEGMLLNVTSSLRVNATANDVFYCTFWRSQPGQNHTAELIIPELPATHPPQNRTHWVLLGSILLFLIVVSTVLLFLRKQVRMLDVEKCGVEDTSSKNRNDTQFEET
Chain of Programmed cell death 1 ligand 1 (Homo sapiens, UniProt Q9NZQ7) (Q9NZQ7 whole entry): as the sequence (Q9NZQ7 whole entry) above

## COc1ccc(Nc2nnc(-c3ccc([N+](=O)[O-])cc3)o2)cc1
[1]
  IC50: 64.1 µM

## COc1ccc(Nc2nnc(-c3ccc(-c4ccccc4)c(C)c3)o2)cc1
[1]
  IC50: > 100 µM

## Cc1c(-c2ccccc2)cccc1-c1nnc(Nc2cccc(CN3CC[C@@H](O)C3)c2)o1
[1]
  IC50: 46.4 µM

## Cc1c(-c2ccccc2)cccc1-c1nnc(Nc2cccc(CNCCO)c2)o1
CT26 [2]
  Activity: Active
B16-F10 [3]
  Activity: Active
B16-F10 [4]
  Activity: Dose-Dependent Effect
B16-F10 [5]
  Activity: Dose-Dependent Effect
B16-F10 [6]
  Activity: Active
B16-F10 [7]
  Activity: Active
CT26 [8]
  Activity: Active
B16-F10 [9]
  Activity: Active
B16-F10 [10]
  Activity: Active
CT26 [11]
  Activity: 75%
CT26 [12]
  Activity: Dose-Dependent Effect
[13]
  Kd: 0.48 µM
B16-F10 [14]
  Activity: Dose-Dependent Effect
CT26 [15]
  Activity: 55%
[1]
  IC50: 27.8 µM
CT26 [16]
  Activity: 45%
[17]
  Activity: Non-Toxic
CT26 [18]
  Activity: Active
B16-F10 [19]
  Activity: Active
CT26 [20]
  Activity: Active
CT26 [21]
  Activity: inactive
CT26 [22]
  Activity: Dose-Dependent Effect
CT26 [23]
  Activity: Active
CT26 [24]
  Activity: Dose-Dependent Effect
[25]
  Activity: Non-Toxic
[26]
  Kd: 0.025 µM
B16-F10 [27]
  Activity: Active
MDA-MB-231
  Activity: Active

## Cc1c(-c2ccccc2)cccc1-c1nnc(Nc2cccc(CNCC(=O)O)c2)o1
[1]
  IC50: 24.5 µM

## CC(=O)NCCNCc1ccc(Nc2nnc(-c3cccc(-c4ccccc4)c3C)o2)cc1
[1]
  IC50: 1800 µM

## Cc1c(-c2ccccc2)cccc1-c1nnc(Nc2cccc(CNCCN)c2)o1
[1]
  IC50: 152 µM

## Cc1c(-c2ccccc2)cccc1-c1nnc(Nc2cccc(CNCCCO)c2)o1
[1]
  IC50: 55.9 µM

## Cc1c(-c2ccccc2)cccc1-c1nnc(Nc2cccc(CN(C)CCO)c2)o1
[1]
  IC50: 67.1 µM

## CC(=O)NCCNCc1cccc(Nc2nnc(-c3cccc(-c4ccccc4)c3C)o2)c1
[1]
  IC50: 34.1 µM

## Cc1c(-c2ccccc2)cccc1-c1nnc(Nc2cccc(CN[C@H](C)CO)c2)o1
[1]
  IC50: 70 µM

## COc1ccc(Nc2nnc(-c3cccc(-c4ccccc4)c3C)o2)cc1
[1]
  IC50: 2.64 µM

## Cc1c(-c2ccccc2)cccc1-c1nnc(Nc2ccc(CNCC(=O)O)cc2)o1
[1]
  IC50: 516 µM

## Cc1c(-c2ccccc2)cccc1-c1nnc(Nc2cccc(CN3CCOCC3)c2)o1
[1]
  IC50: 64.1 µM

## Cc1c(-c2ccccc2)cccc1-c1nnc(Nc2ccc(CNCCO)cc2)o1
[1]
  IC50: 744 µM
